Reference: patent EP4635513A1, “NEAR-INFRARED PHOTOSENSITIZER THAT CAN BE ACTIVATED IN SLIGHTLY ACIDIC TUMOR ENVIRONMENT AND PREPARATION METHOD THEREFOR AND USE THEREOF” (Shenzhen University, priority 2024, dated 2025)

Experiments:
[1] = Singlet oxygen generation assay with DPBF as trapping agent; type: physicochemical; conditions: 808 nm laser irradiation, 0.2 W cm^-2; DMSO
Experimental: The photosensitizers LET-R (R = H, Cl, Br, I) prepared in the Embodiments 1-4 were assessed. 1,3-Diphenylisobenzofuran (DPBF) was selected as a singlet oxygen trapping agent to determine a singlet oxygen generation capability of each photosensitizer molecule.
A 1 mM DPBF stock solution was first prepared for use. An appropriate volume of freshly prepared DPBF solution was then added to DMSO to adjust the absorbance at 415 nm to approximately 1.0, followed by addition of photosensitizer solution at appropriate concentration. The ultraviolet-visible absorption spectra were measured after different irradiation times with a near-infrared laser. The singlet oxygen generation capability of each photosensitizer was evaluated by monitoring the absorbance changes of DPBF at 415 nm.

[2] = Singlet oxygen detection by ESR/EPR spectroscopy with TEMP as trapping agent; type: physicochemical; conditions: near-infrared irradiation
Experimental: Singlet oxygen generation and characterization were further analyzed by electron spin resonance (ESR) spectroscopy. Using photosensitizers LET-H' and LET-I' as examples, 2,2,6,6-tetramethyl-4-piperidone hydrochloride (TEMP) was employed as the singlet oxygen trapping agent. Two groups of photosensitizer stock solutions were prepared and diluted with TEMP added, one group remained untreated, while another was irradiated with the near-infrared laser, and a blank control group was also prepared for comparison.

[3] = pH-response fluorescence spectra; type: physicochemical; conditions: pH dependence; for fluorescence intensity in the visible light region: excitation 420 nm, PBS buffer with 1% DMSO; for fluorescence emission intensity in the near-infrared region: excitation 760 nm (LET-H, LET-I), 660 nm (LET-Hcy-N)
Experimental: The photosensitizers prepared in the Embodiments 1-8 were individually dissolved in dimethyl sulfoxide to prepare 10 mM photosensitizer stock solution, which were stored at 4 °C for subsequent use. All experiments were conducted in PBS buffer (1 ×) containing 1% DMSO. 2 µL of the photosensitizer stock solution was added to 2 mL of PBS buffer solutions at different pH values. Absorption spectra and fluorescence spectra of each photosensitizer under various pH conditions were recorded using ultraviolet-visible spectrophotometry and fluorescence spectrophotometry.

[4] = Singlet oxygen quantum yield with ICG as reference standard; type: physicochemical; conditions: DPBF in dichloromethane, near-infrared laser
Experimental: Using indocyanine green (ICG) as a reference standard, the singlet oxygen quantum yields of photosensitizers LET-R (R = H, Cl, Br, I) were determined. At first, an appropriate volume of freshly prepared DPBF solution was added to dichloromethane to adjust the absorbance at 415 nm to approximately 1.0, followed by addition of test solution (photosensitizer or ICG) at optimized concentration. Samples were then irradiated with a near-infrared laser, and time-dependent ultraviolet-visible spectral changes were recorded. The singlet oxygen quantum yield was calculated using Formula (1): ΦΔ = […] [formula]
ΦΔ represents the singlet oxygen quantum yield of test molecules, and ΦICG represents the singlet oxygen quantum yield of ICG. "ps" represents the photosensitizer under investigation, while k represents a slope of DPBF absorbance decay at 415 nm over time. And correction factor F is calculated using Formula (2): […] [formula]
In Formula (2), OD represents the absorbance of solutions at a laser wavelength.

[5] = system: murine mammary carcinoma cells (4T1 cell line); experiment: Photodynamic efficacy at cellular level, cell viability assay; type: cell-based; conditions: Mus musculus, light or radiation study, 4T1 cells, 6 hours incubation, 808 nm (0.2 W/cm^2) laser, 20 minutes irradiation
Experimental: The photodynamic therapeutic efficacy was evaluated using standardized […] assay protocols to assess the effects of photosensitizer molecules on viability of murine mammary carcinoma cells (4T1 cell line).
Cell culture was performed using Dulbecco's Modified Eagle Medium (DMEM) high glucose supplemented with 10% fetal bovine serum (FBS) and 1% antibiotic-antimycotic solution (penicillin-streptomycin mixture), and maintained in a humidified incubator at 37 °C with 5% CO2. Experimental procedures were initiated when cell density reached 80% confluency. Using photosensitizers LET-H and LET-I as examples, 4T1 cells were seeded in 96-well plates (100 µL, 5×10^3 cells/well) and cultured for 24 hours, then original medium was discarded and replaced with medium containing photosensitizer molecules at a concentration of 20 µM. After 6 hours of incubation, the medium in each well was replaced with fresh medium, and irradiated with an 808 nm (0.2 W/cm^2) laser for different times (0, 5, 10 and 20 min), and placed back in cell culture incubator for continued incubation. After irradiation, the plates were returned to the incubator for continued culture. After 12 hours of incubation, 10 µL of CCK-8 solution was added to each well, and the plates were incubated for one additional hour. Absorbance was subsequently measured at 450 nm using a microplate reader.

## CC1(C)C(=CC=C2CCCC(C=CC34OCCCN3c3ccc(I)cc3C4(C)C)=C2Cl)N(CCCO)c2ccc(I)cc21 (stereo not shown) [LET-I]
[1]
  singlet oxygen generation capability (DPBF degradation, absorbance at 415 nm): superior singlet oxygen generation efficiency
[2]
  EPR spectrum, singlet oxygen production: three isointense paramagnetic resonance peaks (1:1:1)
[3]
  fluorescence intensity in the visible light region: decreased with increasing pH
  fluorescence emission intensity in the near-infrared region: enhanced fluorescence emission intensity at higher pH values
[4]
  singlet oxygen quantum yield: superior singlet oxygen generation capability
[5]
  viability at 20 µM: < 30%

## CCN(CC)c1ccc2c(c1)OC1=C(C=CC34OCCCN3c3ccccc3C4(C)C)CCCC1=C2 (stereo not shown) [LET-Hcy-N]
[3]
  fluorescence emission intensity in the near-infrared region: enhanced fluorescence emission intensity at higher pH values

## CC1(C)C(=CC=C2CCCC(C=CC34OCCCN3c3ccccc3C4(C)C)=C2Cl)N(CCCO)c2ccccc21 (stereo not shown) [LET-H]
[2]
  EPR spectrum, singlet oxygen production: three isointense paramagnetic resonance peaks (1:1:1)
[3]
  fluorescence intensity in the visible light region: decreased with increasing pH
  fluorescence emission intensity in the near-infrared region: enhanced fluorescence emission intensity at higher pH values
